# Patent US8497285B2, “Therapy of autoimmune colitis using a TIP60 inhibitor” (The Trustees Of The University Of Pennsylvania, priority 2010, dated 2013)
# Key:
# [1] = system: dextran sodium sulfate (DSS) colitis; test: DSS model of colitis, reversal of established colitis; assay type: in vivo, mice
# Procedure: FIG. 12A-C are the results of experiments described in Example 5. […] FIG. 12C provide graphical data for weight loss, bleeding score, and stool consistency (i.e., higher score reflects higher levels of diarrhea), wherein the mice were first subjected to DSS irritation, then subset populations were remedially treated after 8 days with the compound having Structure B7.
# In a first test, the effects of exposure to dextran sodium sulfate (DSS) were evaluated, which results in a partially CD4-dependent inflammatory model of colitis, in wildtype (WT) versus TIP60dn C57BL/6 mice (8 mice/group).
# Data were also generated using the compound of Structure B7 in the DSS model, in an experiment designed to test the ability of TIP60 inhibitor therapy to reverse established colitis by waiting until mice had ˜15% weight loss. In marked contrast to use of carrier DMSO alone, TIP60 inhibitor therapy (2 mg/kg/d, i.p.) reversed weight loss (p<0.01), blood in the stool (p<0.01) and diarrhea (p<0.005) (see FIG. 12C) and maintained colon length (p<0.01).
# [2] = system: Treg suppression of T cell proliferation; test: Treg suppression assay (CFSE T cell proliferation, 3 days, varying Treg:T cell ratios); assay type: cell-based; settings: for suppression of Treg in vitro: 500x dilution of 10 mM, 20 micromolar, FIG. 10; for T cell proliferation (percentage of proliferated cells): Treg:Teff=1:1
# Source text: FIG. 8. are flow cytometry dataplots showing the enhancement of TIP60 inhibitor B7 suppression of Treg in vitro. Individual peaks reflect number of cells divisions under the standard test conditions (3 days), where the cell populations are dyed with CFSE (carboxyfluorescen diacetate, succimidyl ester). FIG. 8A are the data for DMSO without B7; FIG. 8B are the data for B7-1000×; FIG. 8C are the data for B7-4000×; and FIG. 8D are the data for B7-8000. In each case, the 1000×/4000×/8000× refers to the dilution factor of the B7, from an original 10 mM solution of B7; e.g, 1000× represents a solution diluted by a factor of 1000, so as to result in a 10 micromolar solution. The numbers in the upper left corner of the plot (e.g., 88, 81, 74, 65, and 37 of FIG. 8A) refer to the measured percentage of proliferated cells.
# FIG. 10. are flow cytometry dataplots showing the enhancement of TIP60 inhibitors B7 suppression of Treg in vitro. FIG. 10A are the data for DMSO without any B7-type inhibitor; FIG. 10B are the data for B7-500×; FIG. 10C are the data for B7A-500×; FIG. 10D are the data for B7B-500; and FIG. 10D are the data for B7C-500×. In each case, the 500× refers to the dilution factor of the B7/B7A/B7B/B7C, from an original 10 mM solution of the compound; e.g, 500× represents a solution diluted by a factor of 500, so as to result in a 20 micromolar solution.
# Several exemplary compounds of the present invention were screened at 10 μg/ml in vitro, at varying Treg:T cell ratios, using standard cell proliferation techniques (3 days, using CSFE dyes). Such techniques are well understood by those skilled in the art. For example, see Akimova T, Ge G, Golovina T, Mikheeva T, Wang L, Riley J L, Hancock W W., “Histone/protein deacetylase inhibitors increase suppressive functions of human FOXP3+ Tregs,” Clin Immunol. 2010 September; 136(3):348-63; Tao R, Hancock W W., Resistance of FOXP3+ regulatory T cells to Nur77-induced apoptosis promotes allograft survival,” PLoS One. 2008 May 28; 3(5):e2321; Tao R, Wang L, Murphy K M, Fraser C C, Hancock W W., “Regulatory T cell expression of herpesvirus entry mediator suppresses the function of B and T lymphocyte attenuator-positive effector T cells.,” J. Immunol. 2008 May 15; 180(10):6649-55; and Tao R, de Zoeten E F, Ozkaynak E, Chen C, Wang L, Porrett P M, Li B, Turka L A, Olson E N, Greene M I, Wells A D, Hancock W W., “Deacetylase inhibition promotes the generation and function of regulatory T cells,” Nat. Med. 2007 November; 13(11):1299-307 for the protocols used herein. Each of these references is incorporated by reference herein, at least for this purpose.
# T cell proliferation was unimpaired in the absence of Treg cells (see left panels in FIG. 8A-D), but was increasingly impaired at increasing Treg concentration (for example, in FIG. 8A, increasing Treg:Tcell ratio from 0:1 to 1:1 reduced proliferation from 88% to 37% under otherwise identical conditions). […] Efficacy was also seen at 1 μg/ml for some compounds.
# FOXP3 = FOXP3 bound on chromatin in SZ-4 T cells (Western blot); assay type: cell-based; settings: FIG. 9
# TIP60 = target: T1, TIP60 (Homo sapiens, UniProt Q92993); test: TIP60 activity by acetylation of TIP60 or its substrate FOXP3 in transfected 293T cells (Ac-K immunoprecipitation, Western blot); assay type: cell-based; settings: 4 hours
# T1 construct: expressed in transfected cells; host or cells: 293T cells
# Procedure: FIG. 11 illustrate the effect of B7G on TIP60. TIP60 activity was assessed by examining acetylation of TIP60 or its substrate FOXP3. Both TIP60 and FOXP3 were overexpressed in 293T cells. Acetylated proteins were first immunoprecipitated with the acetyl-lysine specific antibody Ac-K and then blotted with HRP conjugated antibodies to expression tags (HA for FOXP3 or FLAG for TIP60).
# TIP60 is known to have acetyl transferase activity to acetylate itself (auto-acetylation) or substrates including FOXP3. To examine activity of B7G on TIP60, 293T cells were transfected with Flag-tagged TIP60 and HA-tagged FOXP3. 24 hours after transfection, cells were treated with various concentrations of B7G for 4 hours before cell lysates were collected. Acetylated proteins were precipitated by anti-acetyl lysine antibody Ac-K. FOXP3 and TIP60 in the lysate or precipitated by Ac-K antibody were identified by anti-HA-HRP and anti-FLAG-HRP respectively.
# [3] = 2 mg/kg/d i.p., vs carrier DMSO, p<0.01
# T1 sequence (Q92993 whole entry, species assumed): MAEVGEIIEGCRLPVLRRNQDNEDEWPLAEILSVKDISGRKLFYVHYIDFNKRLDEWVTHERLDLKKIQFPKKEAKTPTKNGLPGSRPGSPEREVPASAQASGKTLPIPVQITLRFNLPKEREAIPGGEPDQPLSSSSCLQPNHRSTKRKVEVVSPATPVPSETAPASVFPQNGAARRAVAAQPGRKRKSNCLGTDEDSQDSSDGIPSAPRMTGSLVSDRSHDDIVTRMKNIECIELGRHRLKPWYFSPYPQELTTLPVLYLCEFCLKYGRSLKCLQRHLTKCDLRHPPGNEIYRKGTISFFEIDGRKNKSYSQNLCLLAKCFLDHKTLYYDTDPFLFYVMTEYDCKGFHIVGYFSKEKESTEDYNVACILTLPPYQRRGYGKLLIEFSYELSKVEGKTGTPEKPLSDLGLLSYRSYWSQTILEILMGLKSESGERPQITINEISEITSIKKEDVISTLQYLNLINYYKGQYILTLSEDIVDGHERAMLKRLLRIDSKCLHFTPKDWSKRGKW
compound,measurement,setting,value
Cc1ccc(NC(=O)C2CC(=O)N(CCc3ccc(Cl)cc3)C2)cc1 (stereo not drawn) [Compound B7],weight loss,"[1]; 2 mg/kg/d i.p., started at ~15% weight loss, vs carrier DMSO, p<0.01",reversed
same,diarrhea,"[1]; 2 mg/kg/d i.p., vs carrier DMSO, p<0.005",reversed
same,blood in the stool,[1]; [3],reversed
same,colon length,[1]; [3],maintained
same,colon length relative to unstressed control animal,"[1]; single animal, 3% DSS then B7",about 94%
same,spleen size relative to control,"[1]; single animal, 3% DSS then B7",comparable in size to that of the control
same,suppression of Treg in vitro,[2],enhancement
same,Treg activity (decreasing T cell proliferation),"[2]; B7 2.5 to 10 μM, dose dependent",enhanced the Treg activity
same,T cell proliferation in the absence of Treg cells,"[2]; Treg:T cell 0:1, FIG. 8A-D left panels",unimpaired
same,T cell proliferation (percentage of proliferated cells),"[2]; highest B7 dose 10 μM (FIG. 8B, 1000x dilution)",25%
same,T cell proliferation (percentage of proliferated cells),"[2]; intermediate B7 dose (FIG. 8C, 4000x dilution of 10 mM)",30%
same,T cell proliferation (percentage of proliferated cells),"[2]; lowest B7 dose (FIG. 8D, 8000x dilution of 10 mM; text: 2.5 μM)",37%
O=C(Nc1ccc(Cl)cc1)C1CC(=O)N(CCc2ccc(Cl)cc2)C1 (stereo not drawn) [Compound B7A],suppression of Treg in vitro,[2],enhancement
Cc1ccc2cc(NC(=O)C3CC(=O)N(CCc4ccc(Cl)cc4)C3)ccc2n1 (stereo not drawn) [Compound B7C],suppression of Treg in vitro,[2],enhancement
same,FOXP3 bound on chromatin,FOXP3,intervening with FOXP3 bound on chromatin
COc1ccc(NC(=O)C2CC(=O)N(CCc3ccc(Cl)cc3)C2)cc1 (stereo not drawn) [Compound B7B],suppression of Treg in vitro,[2],enhancement
COc1ccc(CCN2CC(C(=O)Nc3ccc(F)c(Cl)c3)CC2=O)cc1OC (stereo not drawn) [Compound B7G],Acetylated FOXP3,TIP60; 32 μg/ml,reduced significantly
same,Acetylated TIP60,TIP60; 32 μg/ml,reduced significantly
same,TIP60 auto-acetylation,TIP60; lower concentration,slightly increase
same,TIP60 expression level in total cell lysate,"TIP60; various concentrations, FLAG-HRP",not significantly affected
same,FOXP3 expression level in total cell lysate,"TIP60; various concentrations, HA-HRP",not significantly affected
